Measured values: ChEMBL document CHEMBL1135692, “Structure-activity relationships of the melanocortin tetrapeptide Ac-His-D-Phe-Arg-Trp-NH2 at the mouse melanocortin receptors. 4. Modifications at the Trp position” (J Med Chem, 2002)

Experiments:
Assay type in all cases: cell-based
Melanocortin receptor 5 = Melanocortin receptor 5 (Mus musculus, UniProt P41149); assay: Activity in mouse melanocortin-5 receptor stably expressed in HEK293 cells
Melanocortin receptor 4 = Melanocortin receptor 4 (Mus musculus, UniProt P56450); assay: Activity in mouse melanocortin-4 receptor stably expressed in HEK293 cells
Chain of Melanocortin receptor 4 (P56450 whole entry): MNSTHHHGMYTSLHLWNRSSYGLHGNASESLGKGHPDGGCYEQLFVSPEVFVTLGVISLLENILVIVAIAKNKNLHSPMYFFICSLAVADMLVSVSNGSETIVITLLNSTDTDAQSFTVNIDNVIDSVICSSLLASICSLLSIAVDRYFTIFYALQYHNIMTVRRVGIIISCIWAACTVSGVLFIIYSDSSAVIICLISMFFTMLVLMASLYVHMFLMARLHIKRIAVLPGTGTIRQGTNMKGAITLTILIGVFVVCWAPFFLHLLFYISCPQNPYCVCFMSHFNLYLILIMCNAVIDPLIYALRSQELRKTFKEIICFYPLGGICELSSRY

[1] = biological target: Melanocyte-stimulating hormone receptor (Mus musculus, UniProt Q01727); assay: Activity in mouse melanocortin-1 receptor stably expressed in HEK293 cells
Chain of Melanocyte-stimulating hormone receptor (Q01727 whole entry): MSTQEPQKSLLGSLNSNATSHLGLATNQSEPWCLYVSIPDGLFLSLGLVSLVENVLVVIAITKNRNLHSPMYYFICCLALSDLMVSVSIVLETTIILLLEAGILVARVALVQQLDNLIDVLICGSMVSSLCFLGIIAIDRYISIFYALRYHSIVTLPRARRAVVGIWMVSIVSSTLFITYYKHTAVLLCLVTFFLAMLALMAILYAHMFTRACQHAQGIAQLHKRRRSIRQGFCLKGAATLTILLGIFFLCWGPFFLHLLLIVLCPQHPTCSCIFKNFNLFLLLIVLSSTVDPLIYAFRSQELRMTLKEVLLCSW

Melanocortin receptor 3 = Melanocortin receptor 3 (Mus musculus, UniProt P33033); assay: Activity in mouse melanocortin-3 receptor (mMC3R) stably expressed in HEK293 cells
Chain of Melanocortin receptor 3 (P33033 whole entry): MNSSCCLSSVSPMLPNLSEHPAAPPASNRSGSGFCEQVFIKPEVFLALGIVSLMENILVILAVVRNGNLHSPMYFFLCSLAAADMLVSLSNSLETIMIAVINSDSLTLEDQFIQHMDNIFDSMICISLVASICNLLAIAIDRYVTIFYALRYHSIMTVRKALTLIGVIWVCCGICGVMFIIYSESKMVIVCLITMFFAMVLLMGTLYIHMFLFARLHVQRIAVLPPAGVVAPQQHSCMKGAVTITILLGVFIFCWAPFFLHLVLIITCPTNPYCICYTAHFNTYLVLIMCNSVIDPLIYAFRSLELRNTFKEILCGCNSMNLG

Chain of Melanocortin receptor 5 (P41149 whole entry): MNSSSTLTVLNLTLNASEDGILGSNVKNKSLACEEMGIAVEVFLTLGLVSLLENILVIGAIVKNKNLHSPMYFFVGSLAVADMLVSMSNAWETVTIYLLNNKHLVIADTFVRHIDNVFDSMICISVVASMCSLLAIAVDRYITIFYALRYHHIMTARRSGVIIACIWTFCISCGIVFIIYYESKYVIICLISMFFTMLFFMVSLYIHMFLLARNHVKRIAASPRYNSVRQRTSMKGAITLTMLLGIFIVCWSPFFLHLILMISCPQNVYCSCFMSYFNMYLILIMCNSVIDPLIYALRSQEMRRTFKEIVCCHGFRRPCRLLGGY

CC(=O)N[C@@H](Cc1c[nH]cn1)C(=O)N[C@H](Cc1ccccc1)C(=O)N[C@@H](CCCN=C(N)N)C(=O)N[C@H](C(N)=O)C(c1ccccc1)c1ccccc1
EC50 (Melanocortin receptor 5): 7100 nM | EC50 (Melanocortin receptor 4): 11600 nM | EC50 [1]: 2300 nM

CC(=O)N[C@@H](Cc1c[nH]cn1)C(=O)N[C@@H](Cc1ccccc1)C(=O)N[C@@H](CCCN=C(N)N)C(=O)N[C@@H](C(N)=O)C(c1ccccc1)c1ccccc1
EC50 (Melanocortin receptor 3): 53300 nM

CC(=O)N[C@@H](Cc1c[nH]cn1)C(=O)N[C@H](Cc1ccccc1)C(=O)N[C@@H](CCCN=C(N)N)C(=O)N[C@@H](Cc1ccccc1)C(N)=O
EC50 (Melanocortin receptor 5): 890 nM | EC50 (Melanocortin receptor 4): 7800 nM | EC50 [1]: 530 nM

CC(=O)N[C@@H](Cc1c[nH]cn1)C(=O)N[C@@H](Cc1ccccc1)C(=O)N[C@@H](CCCN=C(N)N)C(=O)N[C@H](Cc1ccccc1)C(N)=O
EC50 (Melanocortin receptor 3): 27000 nM

CC(=O)N[C@@H](Cc1cnc[nH]1)C(=O)N[C@H](Cc1ccccc1)C(=O)N[C@@H](CCCN=C(N)N)C(=O)N1Cc2ccccc2C[C@H]1C(N)=O
EC50 (Melanocortin receptor 5): 700 nM | EC50 (Melanocortin receptor 4): 8500 nM | EC50 [1]: 43 nM | EC50 (Melanocortin receptor 3): 23200 nM

CC(=O)N[C@@H](Cc1cnc[nH]1)C(=O)N[C@H](Cc1ccccc1)C(=O)N[C@@H](CCCN=C(N)N)C(=O)N1Cc2ccccc2C[C@@H]1C(N)=O
EC50 (Melanocortin receptor 5): 24800 nM | EC50 (Melanocortin receptor 4): 39400 nM | EC50 [1]: 1500 nM | EC50 (Melanocortin receptor 3): > 100000 nM

CC(=O)N[C@@H](Cc1c[nH]cn1)C(=O)N[C@H](Cc1ccccc1)C(=O)N[C@@H](CCCN=C(N)N)C(=O)N[C@@H](C)C(N)=O
EC50 (Melanocortin receptor 5): 38400 nM | EC50 (Melanocortin receptor 4): 43700 nM | EC50 [1]: 4400 nM | EC50 (Melanocortin receptor 3): > 100000 nM

CC(=O)N[C@@H](Cc1cnc[nH]1)C(=O)NC(Cc1ccccc1)C(=O)N[C@@H](CCCNC(=N)N)C(=O)N[C@H](Cc1csc2ccccc12)C(N)=O (stereo in doubt) [listing 1 of 2 here]
EC50 (Melanocortin receptor 5): 47.7 nM | EC50 (Melanocortin receptor 4): 143 nM | EC50 [1]: 79.9 nM

CC(=O)N[C@@H](Cc1cnc[nH]1)C(=O)NC(Cc1ccccc1)C(=O)N[C@@H](CCCNC(=N)N)C(=O)N[C@H](Cc1csc2ccccc12)C(N)=O (stereo in doubt) [listing 2 of 2 here]
EC50 (Melanocortin receptor 3): 3700 nM

CC(=O)N[C@@H](Cc1cnc[nH]1)C(=O)NC(Cc1ccccc1)C(=O)N[C@@H](CCCNC(=N)N)C(=O)NC(Cc1c[nH]c2ccccc12)C(N)=O (stereo in doubt)
EC50 (Melanocortin receptor 5; hek293): 3.96 nM | EC50 (Melanocortin receptor 4; hek293): 17.2 nM

CC(=O)N[C@@H](Cc1cnc[nH]1)C(=O)NC(Cc1ccccc1)C(=O)N[C@@H](CCCNC(=N)N)C(=O)N[C@H](Cc1cccc2ccccc12)C(N)=O (stereo in doubt) [listing 1 of 2 here]
EC50 (Melanocortin receptor 5): 33.1 nM | EC50 (Melanocortin receptor 4): 260 nM | EC50 [1]: 730 nM

CC(=O)N[C@@H](Cc1cnc[nH]1)C(=O)NC(Cc1ccccc1)C(=O)N[C@@H](CCCNC(=N)N)C(=O)N[C@H](Cc1cccc2ccccc12)C(N)=O (stereo in doubt) [listing 2 of 2 here]
EC50 (Melanocortin receptor 3): 3500 nM

CC(=O)N[C@@H](Cc1c[nH]cn1)C(=O)NC(Cc1ccccc1)C(=O)N[C@@H](CCCN=C(N)N)C(=O)NC(Cc1ccccc1)C(N)=O (stereo in doubt) [listing 1 of 2 here]
EC50 (Melanocortin receptor 5): 470 nM | EC50 (Melanocortin receptor 4): 1000 nM | EC50 [1]: 2500 nM

CC(=O)N[C@@H](Cc1c[nH]cn1)C(=O)NC(Cc1ccccc1)C(=O)N[C@@H](CCCN=C(N)N)C(=O)NC(Cc1ccccc1)C(N)=O (stereo in doubt) [listing 2 of 2 here]
EC50 (Melanocortin receptor 3): 15000 nM

CC(=O)N[C@@H](Cc1cnc[nH]1)C(=O)N[C@H](Cc1ccccc1)C(=O)N[C@@H](CCCN=C(N)N)C(=O)NC(Cc1c[nH]c2ccccc12)C(N)=O (stereo in doubt)
EC50 (Melanocortin receptor 5): 35.3 nM | EC50 (Melanocortin receptor 4): 240 nM

CC(=O)N[C@@H](Cc1cnc[nH]1)C(=O)NC(Cc1ccccc1)C(=O)N[C@@H](CCCNC(=N)N)C(=O)N[C@@H](Cc1cccc2ccccc12)C(N)=O (stereo in doubt) [listing 1 of 2 here]
EC50 (Melanocortin receptor 5): 750 nM | EC50 (Melanocortin receptor 4): 5400 nM | EC50 [1]: 750 nM

CC(=O)N[C@@H](Cc1cnc[nH]1)C(=O)NC(Cc1ccccc1)C(=O)N[C@@H](CCCNC(=N)N)C(=O)N[C@@H](Cc1cccc2ccccc12)C(N)=O (stereo in doubt) [listing 2 of 2 here]
EC50 (Melanocortin receptor 3): 21900 nM

CC(=O)N[C@@H](Cc1c[nH]cn1)C(=O)NC(Cc1ccccc1)C(=O)N[C@@H](CCCN=C(N)N)C(=O)NC(Cc1ccc2ccccc2c1)C(N)=O (stereo in doubt) [listing 1 of 2 here]
EC50 (Melanocortin receptor 5): 12.1 nM | EC50 (Melanocortin receptor 4): 46.2 nM | EC50 [1]: 127 nM

CC(=O)N[C@@H](Cc1c[nH]cn1)C(=O)NC(Cc1ccccc1)C(=O)N[C@@H](CCCN=C(N)N)C(=O)NC(Cc1ccc2ccccc2c1)C(N)=O (stereo in doubt) [listing 2 of 2 here]
EC50 (Melanocortin receptor 3): 1620 nM

CC(=O)N[C@@H](Cc1c[nH]cn1)C(=O)NC(Cc1ccccc1)C(=O)N[C@@H](CCCN=C(N)N)C(=O)N[C@H](Cc1ccc(-c2ccccc2)cc1)C(N)=O (stereo in doubt) [listing 1 of 2 here]
EC50 (Melanocortin receptor 5): 100 nM | EC50 (Melanocortin receptor 4): 2700 nM | EC50 [1]: 51.9 nM

CC(=O)N[C@@H](Cc1c[nH]cn1)C(=O)NC(Cc1ccccc1)C(=O)N[C@@H](CCCN=C(N)N)C(=O)N[C@H](Cc1ccc(-c2ccccc2)cc1)C(N)=O (stereo in doubt) [listing 2 of 2 here]
EC50 (Melanocortin receptor 3): 13400 nM

CC(=O)N[C@@H](Cc1cnc[nH]1)C(=O)NC(Cc1ccccc1)C(=O)N[C@@H](CCCNC(=N)N)C(=O)N[C@@H](Cc1ccc(-c2ccccc2)cc1)C(N)=O (stereo in doubt) [listing 1 of 2 here]
EC50 (Melanocortin receptor 5): 150 nM | EC50 (Melanocortin receptor 4): 1500 nM | EC50 [1]: 310 nM

CC(=O)N[C@@H](Cc1cnc[nH]1)C(=O)NC(Cc1ccccc1)C(=O)N[C@@H](CCCNC(=N)N)C(=O)N[C@@H](Cc1ccc(-c2ccccc2)cc1)C(N)=O (stereo in doubt) [listing 2 of 2 here]
EC50 (Melanocortin receptor 3): 16200 nM

CC(=O)N[C@@H](Cc1cnc[nH]1)C(=O)NC(Cc1ccccc1)C(=O)N[C@@H](CCCNC(=N)N)C(=O)N[C@H](Cc1cccs1)C(N)=O (stereo in doubt) [listing 1 of 2 here]
EC50 (Melanocortin receptor 5): 850 nM | EC50 (Melanocortin receptor 4): 8120 nM | EC50 [1]: 2780 nM

CC(=O)N[C@@H](Cc1cnc[nH]1)C(=O)NC(Cc1ccccc1)C(=O)N[C@@H](CCCNC(=N)N)C(=O)N[C@H](Cc1cccs1)C(N)=O (stereo in doubt) [listing 2 of 2 here]
EC50 (Melanocortin receptor 3): 30200 nM

CC(=O)N[C@@H](Cc1cnc[nH]1)C(=O)NC(Cc1ccccc1)C(=O)N[C@@H](CCCNC(=N)N)C(=O)N[C@H](Cc1cnc[nH]1)C(N)=O (stereo in doubt) [listing 1 of 2 here]
EC50 (Melanocortin receptor 5): 36000 nM | EC50 (Melanocortin receptor 4): 27600 nM | EC50 [1]: 3800 nM

CC(=O)N[C@@H](Cc1cnc[nH]1)C(=O)NC(Cc1ccccc1)C(=O)N[C@@H](CCCNC(=N)N)C(=O)N[C@H](Cc1cnc[nH]1)C(N)=O (stereo in doubt) [listing 2 of 2 here]
EC50 (Melanocortin receptor 3): > 100000 nM

CC(=O)N[C@@H](Cc1c[nH]cn1)C(=O)NC(Cc1ccccc1)C(=O)N[C@@H](CCCN=C(N)N)C(=O)N[C@H](Cc1ccc2ccccc2c1)C(N)=O (stereo in doubt) [listing 1 of 2 here]
EC50 (Melanocortin receptor 5): 4.86 nM | EC50 (Melanocortin receptor 4): 15.8 nM | EC50 [1]: 17.9 nM

CC(=O)N[C@@H](Cc1c[nH]cn1)C(=O)NC(Cc1ccccc1)C(=O)N[C@@H](CCCN=C(N)N)C(=O)N[C@H](Cc1ccc2ccccc2c1)C(N)=O (stereo in doubt) [listing 2 of 2 here]
EC50 (Melanocortin receptor 3): 740 nM

CC(=O)N[C@@H](Cc1cnc[nH]1)C(=O)NC(Cc1ccccc1)C(=O)N[C@@H](CCCNC(=N)N)C(=O)NC(C(N)=O)C(c1ccccc1)c1ccccc1 (stereo in doubt) [listing 1 of 2 here]
EC50 (Melanocortin receptor 5): 7440 nM | EC50 (Melanocortin receptor 4): 7800 nM | EC50 [1]: 680 nM

CC(=O)N[C@@H](Cc1cnc[nH]1)C(=O)NC(Cc1ccccc1)C(=O)N[C@@H](CCCNC(=N)N)C(=O)NC(C(N)=O)C(c1ccccc1)c1ccccc1 (stereo in doubt) [listing 2 of 2 here]
EC50 (Melanocortin receptor 3): 16000 nM

CC(=O)N[C@@H](Cc1cnc[nH]1)C(=O)NC(Cc1ccccc1)C(=O)N[C@@H](CCCNC(=N)N)C(=O)N[C@H](Cc1ccncc1)C(N)=O (stereo in doubt) [listing 1 of 2 here]
EC50 (Melanocortin receptor 5): 14500 nM | EC50 (Melanocortin receptor 4): 30000 nM | EC50 [1]: 2240 nM

CC(=O)N[C@@H](Cc1cnc[nH]1)C(=O)NC(Cc1ccccc1)C(=O)N[C@@H](CCCNC(=N)N)C(=O)N[C@H](Cc1ccncc1)C(N)=O (stereo in doubt) [listing 2 of 2 here]
EC50 (Melanocortin receptor 3): > 100000 nM

CC(=O)N[C@@H](Cc1c[nH]cn1)C(=O)N[C@H](Cc1ccccc1)C(=O)N[C@@H](CCCN=C(N)N)C(=O)N[C@@]1(C(N)=O)CCc2ccccc2C1 (stereo in doubt; 20)
EC50 (Melanocortin receptor 5): 180 nM | EC50 (Melanocortin receptor 4): 3460 nM | EC50 [1]: 700 nM | EC50 (Melanocortin receptor 3): 9900 nM

CC(=O)N[C@@H](Cc1c[nH]cn1)C(=O)N[C@H](Cc1ccccc1)C(=O)N[C@@H](CCCN=C(N)N)C(=O)N[C@@]1(C(N)=O)CCc2ccccc2C1 (stereo in doubt; 21)
EC50 (Melanocortin receptor 5): 960 nM | EC50 (Melanocortin receptor 4): 8800 nM | EC50 [1]: 680 nM | EC50 (Melanocortin receptor 3): 33500 nM
